Assay results: PMC2762440 (Journal of medicinal chemistry, 2009)

Assays:
Balb/c mice = assay: Forced-swim test in Balb/c mice; type: in vivo, mouse; conditions: for immobility in the forced-swim test vs vehicle: subchronic, i.p. 23, 5 and 1 hr prior; for duration of immobility in the forced-swim test: acute, i.p. 30 min prior
[1] = Human liver microsome stability assay; type: in vitro ADME; conditions: human liver microsomes + NADPH, 40 µM compound, 37 °C
ICR mice = assay: Forced-swim test in ICR mice; type: in vivo, mouse; conditions: for immobility in the forced-swim test vs vehicle: 3 mg/kg, P < 0.05; for duration of immobility in the forced-swim test: doses of 0.3 and 3 mg/kg
[2] = Mouse liver microsome stability assay; type: in vitro ADME; conditions: mouse liver microsomes + NADPH, 40 µM compound, 37 °C
Human PDE4D3 = Human PDE4D3 (Homo sapiens, UniProt Q08499); assay: Inhibition of cAMP hydrolysis by recombinant PDE4D3; type: biochemical; conditions: read-out: Human PDE4D3 Ki, recombinant enzyme
[3] = ICR mice, acute, i.p. 30 min prior

Chain of Human PDE4D3 (Q08499 1-673 isoform Q08499-2): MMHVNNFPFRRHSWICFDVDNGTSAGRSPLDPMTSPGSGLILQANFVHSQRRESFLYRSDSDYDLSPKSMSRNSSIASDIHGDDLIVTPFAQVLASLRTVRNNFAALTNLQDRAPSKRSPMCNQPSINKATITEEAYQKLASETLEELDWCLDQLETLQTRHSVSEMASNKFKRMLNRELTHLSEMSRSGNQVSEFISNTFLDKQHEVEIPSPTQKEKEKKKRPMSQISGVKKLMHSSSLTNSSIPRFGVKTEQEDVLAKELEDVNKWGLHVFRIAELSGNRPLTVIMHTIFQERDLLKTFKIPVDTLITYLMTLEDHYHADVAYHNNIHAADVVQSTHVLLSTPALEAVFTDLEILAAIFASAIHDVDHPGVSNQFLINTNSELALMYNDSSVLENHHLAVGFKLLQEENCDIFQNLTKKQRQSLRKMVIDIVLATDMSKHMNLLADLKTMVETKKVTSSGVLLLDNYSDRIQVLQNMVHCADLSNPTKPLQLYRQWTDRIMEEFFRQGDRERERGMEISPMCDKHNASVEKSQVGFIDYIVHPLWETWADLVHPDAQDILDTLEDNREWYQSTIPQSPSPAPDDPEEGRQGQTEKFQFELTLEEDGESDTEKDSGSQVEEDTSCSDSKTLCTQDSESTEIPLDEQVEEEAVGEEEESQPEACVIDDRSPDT

## COc1ccc(F)cc1CCC1CCC(CCNCCCCCN2N=C(c3ccc(OC)c(OC)c3)[C@H]3CC=CC[C@H]3C2=O)O1 (stereo partly drawn) [Compound 21]
Balb/c mice; 1 mg/kg
  immobility in the forced-swim test vs vehicle: did not change immobility
[1]
  HLM t1/2: not detectably metabolized
ICR mice; [3]
  immobility in the forced-swim test vs vehicle: significantly decreased immobility
  duration of immobility in the forced-swim test: decreased duration of immobility in a dose-dependent manner

## COc1ccc(C2CNC(=O)C2)cc1OC1CCCC1 (stereo not drawn) [Rolipram, reference compound]
ICR mice; acute treatment 0.5 mg/kg, data not shown
  effect in the forced-swim test: did not alter FST behavior

## CNCCC1CCC(CCc2cc(F)ccc2OC)O1 (stereo not drawn) [Compound 24]
[2]
  MLM t1/2: 58.5 min

## COc1ccc(F)cc1CCC1CCC(CCN)O1 (stereo not drawn) [Compound 14, 2-{5-[3-(5-Fluoro-2-methoxy-phenyl)-ethyl]-tetrahydro-furan-2-yl}-ethylamine]
Balb/c mice; 10 mg/kg
  duration of immobility in the forced-swim test: did not markedly alter the duration of immobility
  immobility in the forced-swim test vs vehicle: did not change immobility
ICR mice; ICR mice, acute, i.p. 30 min prior, 10 and 30 mg/kg
  immobility in the forced-swim test: tended to decrease immobility, but this effect was not statistically significant

## COc1ccc(F)cc1CCCC1CCC(CCN)O1 (stereo not drawn) [Compound 15, 2-{5-[3-(5-Fluoro-2-methoxy-phenyl)-propyl]-tetrahydro-furan-2-yl}-ethylamine]
Balb/c mice; 10 mg/kg
  duration of immobility in the forced-swim test: did not markedly alter the duration of immobility
Balb/c mice; 1 mg/kg
  immobility in the forced-swim test vs vehicle: did not change immobility

## COc1ccc(F)c(CCCC2CCC(CCNCCCCCN3N=C(c4ccc(OC)c(OC)c4)[C@H]4CC=CC[C@H]4C3=O)O2)c1 (stereo partly drawn) [Compound 22]
[1]
  HLM t1/2: No detectable metabolic instability

## COc1ccc(C2=NNC(=O)C3CC=CCC23)cc1OC (stereo not drawn) [Compound 19, 4-(3,4-Dimethoxy-phenyl)-4a,5,8,8a-tetrahydro-2H-phthalazin-1-one, reference compound]
ICR mice; [3]
  immobility in the forced-swim test vs vehicle: significantly decreased immobility
  duration of immobility in the forced-swim test: decreased duration of immobility in a dose-dependent manner
Human PDE4D3
  Ki: 6.3 nM
